Measured values published in US6696467B2, “Quinoline derivatives” (Hoffmann-La Roche Inc., priority 2002, dated 2004).
pIC50: −log10 of the molar value.

Biological target: T1, recombinant mouse NPY5-receptor (mNPY5) (Mus musculus, UniProt O70342)
T1 construct: The full-length cDNA encoding the mouse NPY5 (mNPY5) receptor was amplified from mouse brain cDNA; expressed in transfected cells; membranes used
T1 sequence (O70342 1-466): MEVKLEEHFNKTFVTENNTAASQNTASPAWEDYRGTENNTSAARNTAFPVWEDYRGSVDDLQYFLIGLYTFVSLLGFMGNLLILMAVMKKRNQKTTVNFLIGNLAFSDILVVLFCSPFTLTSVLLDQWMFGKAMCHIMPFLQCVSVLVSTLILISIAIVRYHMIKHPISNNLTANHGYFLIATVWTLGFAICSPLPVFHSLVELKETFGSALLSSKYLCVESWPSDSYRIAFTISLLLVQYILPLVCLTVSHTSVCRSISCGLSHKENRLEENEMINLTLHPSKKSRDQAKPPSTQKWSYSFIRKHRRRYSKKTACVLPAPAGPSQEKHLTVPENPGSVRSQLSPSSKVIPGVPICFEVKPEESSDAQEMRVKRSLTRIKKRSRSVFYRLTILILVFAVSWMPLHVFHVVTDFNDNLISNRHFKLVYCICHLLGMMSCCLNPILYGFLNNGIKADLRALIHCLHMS
Test: Radioligand competition binding
Details: displacement of 100 pM [125I]labelled peptide YY (PYY), membranes of HEK293 cells expressing mNPY5, 1 h at 22° C.
Description: The full-length cDNA encoding the mouse NPY5 (mNPY5) receptor was amplified from mouse brain cDNA using specific primers, designed based on the published sequence, and Pfu DNA-Polymerase (Stratagene). The amplification product was subcloned into the mammalian expression vector pcDNA3 using Eco RI and XhoI restriction sites. Positive clones were sequenced and one clone, encoding the published sequence (see Borowsky B., et al., Regul. Pept., 75-76:45-53 (1998)) was selected for generation of stable cell clones.
Human embryonic kidney 293 (HEK293) (ATCC No. CRL-1573) cells were transfected with 10 μg mNPY5 DNA using the lipofectamine reagent (Gibco BRL) according to the manufacturer's instruction. Two days after transfection, geneticin selection (1 mg/ml) was initiated and several stable clones were isolated. One clone was further used for pharmacological characterization.
Human embryonic kidney 293 cells (HEK293), expressing recombinant mouse NPY5-receptor (mNPY5) were broken by three freeze/thawing cycles in hypotonic Tris buffer (5 mM, pH 7.4, 1 mM MgCl2), homogenized and centrifuged at 72,000×g for 15 min. […] Protein was determined according to the method of Lowry using bovine serum albumine (BSA) as a standard. […]

Row | pIC50 | Structure (SMILES)
1 | 9.15 | Cc1cc(N2CCCC2)c2ccc(NCC(C)C)cc2n1 [Example 2, isobutyl-(2-methyl-4-pyrrolidin-1-yl-quinolin-7-yl)-amine]
2 | 9.52 | Cc1cc(N2CCCC2)c2ccc(NC(=O)c3ccco3)cc2n1 [Example 54, furan-2-carboxylic acid (2-methyl-4-pyrrolidin-1-yl-quinolin-7-yl)-amide]
